System: PR8 virus
Set-up: species or system influenza A virus
Details: in vivo

SMILES: CCOC(=O)C1=C[C@@H](OC(CC)CC)[C@H](NC(C)=O)[C@@H](N)C1 [oseltamivir drug, oseltamivir]
- influenza viral titer relative to GFP control siRNA: reduced influenza viral titers
